The results in this text go back to patent US11319299B2, “Substituted carboxamides as inhibitors of WDR5 protein-protein binding” (PROPELLON THERAPEUTICS INC., priority 2016, dated 2022).

In general, Kd refers to the constant that tells how readily two partners part at equilibrium.

For the assay, the target named is WDR5 (Homo sapiens (Human), UniProt P61964). Kind of assay: Surface Plasmon Resonance (SPR) assay, KD and residence time. The note with it: surface plasmon resonance (SPR); read-out: WDR5 binding affinity (KD). It is filed as binding. For orientation: SPR reads the build-up and loss of mass on a sensor chip optically.

In the case of `CC1CN(c2cc(F)c(-c3cnc(N4CCN(C5CC5)CC4)nc3)cc2NC(=O)c2ccc(F)cc2C(F)(F)F)CCN1C` (stereo in doubt) [Example 435, N-[5-[2-(4-cyclopropylpiperazin-1-yl)pyrimidin-5-yl]-4-fluoro-2-[(3R)-3,4-dimethylpiperazin-1-yl]phenyl]-4-fluoro-2-(trifluoromethyl)benzamide], the dissociation constant (Kd) came out at 1.47 nM.
Regarding `CC1CN(c2cc(F)c(-c3ccc(N4CCOCC4)c(F)c3)cc2NC(=O)c2c[nH]c(=O)cc2C(F)F)CCN1C` (stereo in doubt) [Example 448, 4-(difluoromethyl)-N-[4-fluoro-5-(3-fluoro-4-morpholin-4-ylphenyl)-2-[(3R)-3,4-dimethylpiperazin-1-yl]phenyl]-6-oxo-1H-pyridine-3-carboxamide], the dissociation constant Kd was found to be 1.01 nM.
Take `C[C@@H]1CN(c2ncc(-c3cc(NC(=O)c4cn(C)c(=O)cc4C(F)(F)F)c(N4CCN(C)[C@H](C)C4)cc3F)cn2)CCO1` (stereo in doubt) [Example 450, N-[4-fluoro-2-[(3R)-3,4-dimethylpiperazin-1-yl]-5-[2-[(2R)-2-methylmorpholin-4-yl]pyrimidin-5-yl]phenyl]-1-methyl-6-oxo-4-(trifluoromethyl)pyridine-3-carboxamide]: the Kd was 1.02 nM.
The same measure for `CC1CN(c2ncc(-c3cc(NC(=O)c4ccc(F)cc4C(F)(F)F)c(N4C[C@@H](C)N(C)[C@@H](C)C4)cc3F)cn2)CCO1` (stereo in doubt) [Example 453, 4-fluoro-N-[4-fluoro-5-[2-[(2R)-2-methylmorpholin-4-yl]pyrimidin-5-yl]-2-[(3S,5R)-3,4,5-trimethylpiperazin-1-yl]phenyl]-2-(trifluoromethyl)benzamide]: 0.822 nM; for `O=C(Nc1cc(-c2cnc(N3CCOCC3)nc2)c(F)cc1N1C[C@H]2CCN[C@H]2C1)c1c[nH]c(=O)cc1C(F)(F)F` (stereo in doubt) [Example 463, N-[4-fluoro-5-(2-morpholin-4-ylpyrimidin-5-yl)-2-[(3aR,6aR)-2,3,3a,4,6,6a-hexahydro-1H-pyrrolo[2,3-c]pyrrol-5-yl]phenyl]-6-oxo-4-(trifluoromethyl)-1H-pyridine-3-carboxamide]: 168 nM.
The same measure for `CC1COCCN1c1ncc(-c2cc(NC(=O)c3cn(C)c(=O)cc3C(F)F)c(N3C[C@@H](C)N(C)[C@@H](C)C3)cc2F)cn1` (stereo in doubt) [Example 475, 4-(difluoromethyl)-N-[4-fluoro-5-[2-[(3R)-3-methylmorpholin-4-yl]pyrimidin-5-yl]-2-[(3S,5R)-3,4,5-trimethylpiperazin-1-yl]phenyl]-1-methyl-6-oxopyridine-3-carboxamide]: 3.52 nM; for `CCCN1CC[C@@H]2CN(c3cc(F)c(-c4cnc(N5CCOCC5)nc4)cc3NC(=O)c3c[nH]c(=O)cc3C(F)(F)F)C[C@@H]21` (stereo in doubt) [Example 476, N-[4-fluoro-5-(2-morpholin-4-ylpyrimidin-5-yl)-2-[(3aR,6aR)-1-propyl-2,3,3a,4,6,6a-hexahydropyrrolo[2,3-c]pyrrol-5-yl]phenyl]-6-oxo-4-(trifluoromethyl)-1H-pyridine-3-carboxamide]: 9.71 nM.
With `CN1CC[C@@H]2CN(c3cc(F)c(-c4cnc(N5CCOCC5)nc4)cc3NC(=O)c3c[nH]c(=O)cc3C(F)(F)F)C[C@@H]21` (stereo in doubt) [Example 477, N-[4-fluoro-5-(2-morpholin-4-ylpyrimidin-5-yl)-2-[(3aR,6aR)-1-methyl-2,3,3a,4,6,6a-hexahydropyrrolo[2,3-c]pyrrol-5-yl]phenyl]-6-oxo-4-(trifluoromethyl)-1H-pyridine-3-carboxamide], the Kd turned out to be 24.2 nM.
Regarding `CC1CN(c2cc(F)c(-c3ccc(N4CCOCC4)c(F)c3)cc2NC(=O)c2cn(C)c(=O)cc2C(F)F)CCN1C` (stereo in doubt) [Example 478, 4-(difluoromethyl)-N-[4-fluoro-5-(3-fluoro-4-morpholin-4-ylphenyl)-2-[(3R)-3,4-dimethylpiperazin-1-yl]phenyl]-1-methyl-6-oxopyridine-3-carboxamide], the Kd is 5.32 nM.
The same measure for `CC1CN(c2cc(F)c(-c3cnc(N4CCOCC4)nc3)cc2NC(=O)c2c[nH]c(=O)c(C(F)(F)F)c2)CCN1C` (stereo in doubt) [Example 495, N-[4-fluoro-5-(2-morpholin-4-ylpyrimidin-5-yl)-2-[(3R)-3,4-dimethylpiperazin-1-yl]phenyl]-6-oxo-5-(trifluoromethyl)-1H-pyridine-3-carboxamide]: 24.9 nM; for `C[C@@H]1CN(c2ccc(-c3cc(NC(=O)c4c[nH]c(=O)cc4C(F)F)c(N4CCN(C)[C@H](C)C4)cc3F)cn2)CCO1` (stereo in doubt) [Example 507, 4-(difluoromethyl)-N-[4-fluoro-2-[(3R)-3,4-dimethylpiperazin-1-yl]-5-[6-[(2R)-2-methylmorpholin-4-yl]pyridin-3-yl]phenyl]-6-oxo-1H-pyridine-3-carboxamide]: 1.76 nM; for `CC1CN(c2ccc(-c3cc(NC(=O)c4c[nH]c(=O)cc4C(F)F)c(N4C[C@@H](C)N(C)[C@@H](C)C4)cc3F)cn2)CCO1` (stereo in doubt) [Example 510, 4-(difluoromethyl)-N-[4-fluoro-5-[6-[(2R)-2-methylmorpholin-4-yl]pyridin-3-yl]-2-[(3S,5R)-3,4,5-trimethylpiperazin-1-yl]phenyl]-6-oxo-1H-pyridine-3-carboxamide]: 0.623 nM.
On to `CC1CN(c2ccc(-c3cc(NC(=O)c4cn(C)c(=O)cc4C(F)F)c(N4C[C@@H](C)N(C)[C@@H](C)C4)cc3F)cn2)CCO1` (stereo in doubt) [Example 517, 4-(Difluoromethyl)-N-[4-fluoro-5-[6-[(2R)-2-methylmorpholin-4-yl]pyridin-3-yl]-2-[(3S,5R)-3,4,5-trimethylpiperazin-1-yl]phenyl]-1-methyl-6-oxopyridine-3-carboxamide], for which the Kd worked out at 5.97 nM.
The same measure for `C[C@@H]1CN(c2ccc(-c3cc(NC(=O)c4cn(C)c(=O)cc4C(F)F)c(N4CCN(C)[C@H](C)C4)cc3F)cn2)CCO1` (stereo in doubt) [Example 519, 4-(difluoromethyl)-N-[4-fluoro-2-[(3R)-3,4-dimethylpiperazin-1-yl]-5-[6-[(2R)-2-methylmorpholin-4-yl]pyridin-3-yl]phenyl]-1-methyl-6-oxopyridine-3-carboxamide]: 3.39 nM; for `CC1CN(c2cc(F)c(-c3ccc(N4CCNCC4)nc3)cc2NC(=O)c2ccc(F)cc2C(F)(F)F)CCN1C` (stereo in doubt) [Example 530, 4-fluoro-N-[4-fluoro-5-(6-piperazin-1-ylpyridin-3-yl)-2-[(3R)-3,4-dimethylpiperazin-1-yl]phenyl]-2-(trifluoromethyl)benzamide]: 2.16 nM.
In the case of `CC1CN(c2cc(F)c(-c3ccc(F)c(C(N)=O)c3)cc2NC(=O)c2ccc(F)cc2C(F)(F)F)CCN1C` (stereo in doubt) [Example 554, 2-fluoro-5-[2-fluoro-5-[[4-fluoro-2-(trifluoromethyl)benzoyl]amino]-4-[(3R)-3,4-dimethylpiperazin-1-yl]phenyl]benzamide] it was 5.3 nM; in that of `CC1CN(c2cc(F)c(-c3ccc(C(N)=O)c(F)c3)cc2NC(=O)c2ccc(F)cc2C(F)(F)F)CCN1C` (stereo in doubt) [Example 555, 2-fluoro-4-[2-fluoro-5-[[4-fluoro-2-(trifluoromethyl)benzoyl]amino]-4-[(3R)-3,4-dimethylpiperazin-1-yl]phenyl]benzamide], 2.94 nM; in that of `CC1CN(c2cc(F)c(-c3cnc(N4CCN(C(C)(C)C)CC4)nc3)cc2NC(=O)c2ccc(F)cc2C(F)(F)F)CCN1C` (stereo in doubt) [Example 557, N-[5-[2-(4-tert-butylpiperazin-1-yl)pyrimidin-5-yl]-4-fluoro-2-[(3R)-3,4-dimethylpiperazin-1-yl]phenyl]-4-fluoro-2-(trifluoromethyl)benzamide], 1.09 nM.
In the case of `CC1CN(c2cc(F)c(-c3cnc(N4CCOC(C)(C)C4)nc3)cc2NC(=O)c2ccc(F)cc2C(F)(F)F)CCN1C` (stereo in doubt) [Example 558, N-[5-[2-(2,2-dimethylmorpholin-4-yl)pyrimidin-5-yl]-4-fluoro-2-[(3R)-3,4-dimethylpiperazin-1-yl]phenyl]-4-fluoro-2-(trifluoromethyl)benzamide] it was 3.78 nM; in that of `CC1CN(c2cc(F)c(-c3ccc(C(N)=O)c(F)c3)cc2NC(=O)c2c[nH]c(=O)cc2C(F)F)CCN1C` (stereo in doubt) [Example 595, N-[5-(4-carbamoyl-3-fluorophenyl)-4-fluoro-2-[(3R)-3,4-dimethylpiperazin-1-yl]phenyl]-4-(difluoromethyl)-6-oxo-1H-pyridine-3-carboxamide], 1.18 nM.
For `CC1CN(c2cc(F)c(-c3ccc(F)c(C(N)=O)c3)cc2NC(=O)c2c[nH]c(=O)cc2C(F)F)CCN1C` (stereo in doubt) [Example 596, N-[5-(3-carbamoyl-4-fluorophenyl)-4-fluoro-2-[(3R)-3,4-dimethylpiperazin-1-yl]phenyl]-4-(difluoromethyl)-6-oxo-1H-pyridine-3-carboxamide], the equilibrium dissociation constant (Kd) came out at 4.03 nM.
Consider `CNC(=O)c1ccc(-c2cc(NC(=O)c3c[nH]c(=O)cc3C(F)F)c(N3CCN(C)C(C)C3)cc2F)cc1F` (stereo in doubt) [Example 597, 4-(difluoromethyl)-N-[4-fluoro-5-[3-fluoro-4-(methylcarbamoyl)phenyl]-2-[(3R)-3,4-dimethylpiperazin-1-yl]phenyl]-6-oxo-1H-pyridine-3-carboxamide], for which the Kd is 0.711 nM.
In the case of `CNC(=O)c1cc(-c2cc(NC(=O)c3c[nH]c(=O)cc3C(F)F)c(N3CCN(C)C(C)C3)cc2F)ccc1F` (stereo in doubt) [Example 598, 4-(difluoromethyl)-N-[4-fluoro-5-[4-fluoro-3-(methylcarbamoyl)phenyl]-2-[(3R)-3,4-dimethylpiperazin-1-yl]phenyl]-6-oxo-1H-pyridine-3-carboxamide] it was 1.51 nM.
